The target of data set [1] is T1, ABCG2 (Homo sapiens, UniProt Q9UNQ0).
T1 construct: human ABCG2 in membrane vesicles of High-Five insect cells
T1 sequence (Q9UNQ0 1-655): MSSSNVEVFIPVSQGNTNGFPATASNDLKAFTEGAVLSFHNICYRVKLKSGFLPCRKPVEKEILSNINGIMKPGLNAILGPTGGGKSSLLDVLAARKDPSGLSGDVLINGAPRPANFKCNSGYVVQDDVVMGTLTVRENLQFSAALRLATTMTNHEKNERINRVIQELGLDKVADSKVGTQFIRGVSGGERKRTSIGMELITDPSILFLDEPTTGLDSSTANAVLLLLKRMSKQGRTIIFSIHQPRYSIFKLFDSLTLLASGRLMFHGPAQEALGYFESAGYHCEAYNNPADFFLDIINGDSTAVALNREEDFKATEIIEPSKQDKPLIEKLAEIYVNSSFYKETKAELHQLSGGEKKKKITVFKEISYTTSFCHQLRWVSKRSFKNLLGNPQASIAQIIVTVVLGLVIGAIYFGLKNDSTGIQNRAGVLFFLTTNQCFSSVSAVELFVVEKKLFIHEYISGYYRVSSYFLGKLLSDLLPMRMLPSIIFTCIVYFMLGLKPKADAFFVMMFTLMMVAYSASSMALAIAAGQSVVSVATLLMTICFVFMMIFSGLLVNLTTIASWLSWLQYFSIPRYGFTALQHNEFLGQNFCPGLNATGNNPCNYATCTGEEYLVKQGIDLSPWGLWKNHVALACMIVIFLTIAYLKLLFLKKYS
Kind of data set: vanadate-sensitive ATPase stimulation (endpoint Pi release) in ABCG2 membrane vesicles; supported by LC-MS/MS cell accumulation with and without Ko143. Type of data set: biochemical. Particulars: read-out: % of basal ATPase activity (peak stimulation).

Data set [2] deals with T2, epidermal growth factor receptor (EGFR) (Homo sapiens, UniProt P00533).
T2 construct: endogenous EGFR in S1 human colon cancer cells
The experiment in a line: inhibition of EGF-induced EGFR phosphorylation (Tyr1068) in cells, immunoblot. It counts as cell-based.

One compound from PMC11121381, “ABCG2 Mediates Resistance to the Dual EGFR and PI3K Inhibitor MTX-211 in Cancer Cells” (International Journal of Molecular Sciences, 2024) can be followed below.

T2 sequence (P00533 25-1210): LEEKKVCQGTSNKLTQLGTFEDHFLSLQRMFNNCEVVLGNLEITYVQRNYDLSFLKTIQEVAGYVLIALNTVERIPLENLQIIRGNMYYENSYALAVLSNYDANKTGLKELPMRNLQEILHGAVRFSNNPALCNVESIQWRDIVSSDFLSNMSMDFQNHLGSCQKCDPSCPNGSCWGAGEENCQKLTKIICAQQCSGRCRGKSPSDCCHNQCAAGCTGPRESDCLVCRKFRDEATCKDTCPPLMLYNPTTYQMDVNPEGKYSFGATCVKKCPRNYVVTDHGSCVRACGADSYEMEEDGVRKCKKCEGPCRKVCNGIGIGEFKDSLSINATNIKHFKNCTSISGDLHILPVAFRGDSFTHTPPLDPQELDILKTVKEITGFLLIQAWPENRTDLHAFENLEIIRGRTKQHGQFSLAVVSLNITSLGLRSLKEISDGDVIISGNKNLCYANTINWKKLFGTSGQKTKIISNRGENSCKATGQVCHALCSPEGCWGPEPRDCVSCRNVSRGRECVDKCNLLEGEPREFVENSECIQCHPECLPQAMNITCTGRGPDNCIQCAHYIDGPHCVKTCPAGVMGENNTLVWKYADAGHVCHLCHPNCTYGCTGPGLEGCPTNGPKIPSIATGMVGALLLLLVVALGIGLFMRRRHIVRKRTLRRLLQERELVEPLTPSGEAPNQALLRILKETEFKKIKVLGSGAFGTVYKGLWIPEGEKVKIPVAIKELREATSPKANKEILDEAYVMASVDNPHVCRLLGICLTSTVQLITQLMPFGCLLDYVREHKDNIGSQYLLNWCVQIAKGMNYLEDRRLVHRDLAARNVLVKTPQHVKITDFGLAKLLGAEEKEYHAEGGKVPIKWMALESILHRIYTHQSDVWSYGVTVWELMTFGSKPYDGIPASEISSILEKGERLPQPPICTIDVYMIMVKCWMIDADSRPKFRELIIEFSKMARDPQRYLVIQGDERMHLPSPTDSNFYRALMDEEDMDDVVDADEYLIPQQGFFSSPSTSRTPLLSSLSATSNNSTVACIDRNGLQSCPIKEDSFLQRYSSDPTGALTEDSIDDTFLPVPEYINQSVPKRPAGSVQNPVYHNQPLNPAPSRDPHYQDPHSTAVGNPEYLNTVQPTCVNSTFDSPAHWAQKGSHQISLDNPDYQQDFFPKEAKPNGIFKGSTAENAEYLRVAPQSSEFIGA

As for `CS(=O)(=O)Nc1cc(-c2ccc3ncnc(Nc4ccc(F)c(Cl)c4)c3c2)cnc1Cl` [MTX-211], the Emax in data set [1] amounted to 157%. In data set [2], half-maximal inhibition (IC50) was put at 6.64 ± 1.27 µM.

A word on the IC50: it is the concentration that inhibits the measured activity by half. High values mean weaker potency, low ones greater potency.
